Data reported in patent US20230278998A1, “Compound containing structure of a five-membered heteroaromatic ring, pharmaceutical compositions thereof and applications thereof” (280 Bio, Inc., priority 2022, published 2023).

Target: PARG (389-976) (Homo sapiens (Human), UniProt Q86W56)
Assay: PARG enzyme inhibition assay (TR-FRET)
Assay type: biochemical
Protocol: PARG Enzyme Inhibition Assay
PARG in vitro assays were conducted in standard 384-well plates in a total volume of 15 μL.

PARG (389-976), sequence (Q86W56 389-976): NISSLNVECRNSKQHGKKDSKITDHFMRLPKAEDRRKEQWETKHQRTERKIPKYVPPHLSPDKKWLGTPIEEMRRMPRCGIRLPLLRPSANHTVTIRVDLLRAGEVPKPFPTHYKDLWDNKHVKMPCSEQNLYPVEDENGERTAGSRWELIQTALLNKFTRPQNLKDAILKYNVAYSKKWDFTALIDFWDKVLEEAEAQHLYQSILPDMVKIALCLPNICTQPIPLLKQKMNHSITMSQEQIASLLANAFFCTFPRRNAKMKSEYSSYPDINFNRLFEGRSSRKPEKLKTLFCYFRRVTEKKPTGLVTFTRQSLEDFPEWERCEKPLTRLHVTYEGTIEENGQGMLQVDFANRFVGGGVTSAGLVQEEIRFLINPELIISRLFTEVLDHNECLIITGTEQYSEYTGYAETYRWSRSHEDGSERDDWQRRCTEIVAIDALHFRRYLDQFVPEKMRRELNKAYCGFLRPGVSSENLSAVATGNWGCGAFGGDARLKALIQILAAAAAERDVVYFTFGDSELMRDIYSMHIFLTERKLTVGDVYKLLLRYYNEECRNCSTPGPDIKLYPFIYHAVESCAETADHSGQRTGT

Structure (SMILES)	IC50 (Table 2, class symbol) [nM]	also measured
Cc1nc(C)c(Cn2nc(-c3nnc(C(F)F)s3)c3cc(S(=O)(=O)NC4(C)CC4)ccc32)s1 [Compound 1]		IC50 (Table 1, class symbol): < 100 nM
Cc1nnc(-c2nn(Cc3sc(C)nc3C)c3ccc(S(=O)(=O)NC4(C)CC4)cc23)s1 [Compound 2]		IC50 (Table 1, class symbol): < 100 nM
Cc1nc(C)c(Cn2nc(-c3nnc(C(F)F)s3)c3cc(S(=O)(=O)NC4(CF)CC4)ccc32)s1 [Compound 4]		IC50 (Table 1, class symbol): < 100 nM
Cc1nc(C)c(Cn2c(Cl)c(-c3nnc(C(F)F)s3)c3cc(S(=O)(=O)NC4(C)CC4)ccc32)s1 [Compound 7]		IC50 (Table 1, class symbol): < 100 nM
Cc1nc(C)c(Cn2cc(-c3nnc(C(F)F)s3)c3cc(S(=O)(=O)NC4(C)CC4)ccc32)s1 [Compound 8]		IC50 (Table 1, class symbol): < 100 nM
Cc1nc(C)c(Cn2nc(-c3nnc(C(F)F)s3)c3cc(S(=O)(=O)NC4(C)CC4)cnc32)s1 [Compound 9]		IC50 (Table 1, class symbol): < 100 nM
Cc1nc(C)c(Cn2nc(-c3nnc(C(F)F)s3)c3cc(S(=O)(=O)NC4(C)CC4)cc(C(F)(F)F)c32)s1 [Compound 10]		IC50 (Table 1, class symbol): 100 to 1000 nM
Cc1nc(C)c(Cn2nc(-c3nnc(C(F)F)s3)c3nc(S(=O)(=O)NC4(C)CC4)ccc32)s1 [Compound 11]		IC50 (Table 1, class symbol): 100 to 1000 nM
O=S(=O)(NC1(CF)CC1)c1ccc2c(c1)c(-c1nnc(C(F)F)s1)nn2CC1CC1 [Compound 12]		IC50 (Table 1, class symbol): < 100 nM
CC(C)C(=O)N1CCN(c2cc(S(=O)(=O)NC3(C)CC3)cc3c(-c4nnc(C(F)F)s4)nn(CC4CC4)c23)CC1 [Compound 15]	< 100	
CC(C)C(=O)N1CCN(c2cc(S(=O)(=O)NC3(C#N)CC3)cc3c(-c4nnc(C(F)F)s4)n[nH]c23)CC1 [Compound 18]	< 100	IC50 (Table 2, value in brackets): 0.9 nM
Cn1nc(-c2nnc(C(F)F)s2)c2cc(S(=O)(=O)NC3(C#N)CC3)cc(N3CCN(C(=O)C4CC4)CC3)c21 [Compound 24]	< 100	
Cn1nc(-c2nnc(C(F)F)s2)c2cc(S(=O)(=O)NC3(C)CC3)cc(N3CCOCC3)c21 [Compound 25]	< 100	
Cn1nc(-c2nnc(C(F)F)s2)c2cc(S(=O)(=O)NC3(C)CC3)cc(N3CCN(C(=O)C4CC4)CC3)c21 [Compound 27]	< 100	
Cn1nc(-c2nnc(C(F)F)s2)c2cc(S(=O)(=O)NC3(C#N)CC3)cc(N3CCOCC3)c21 [Compound 29]	< 100	
CC(C)C(=O)N1CCN(c2cc(S(=O)(=O)NC3(C#N)CC3)cc3c(-c4nnc(C(F)F)s4)nn(CC(F)(F)F)c23)CC1 [Compound 30]	< 100	
CC(=O)N1CCN(c2cc(S(=O)(=O)NC3(C#N)CC3)cc3c(-c4nnc(C(F)F)s4)nn(C)c23)CC1 [Compound 32]	< 100	
CN(C)C(=O)N1CCN(c2cc(S(=O)(=O)NC3(C#N)CC3)cc3c(-c4nnc(C(F)F)s4)nn(C)c23)CC1 [Compound 33]	< 100	
Cn1nc(-c2nnc(C(F)F)s2)c2cc(S(=O)(=O)NC3(C#N)CC3)cc(N3CCN(S(C)(=O)=O)CC3)c21 [Compound 34]	< 100	
C[C@H]1CN(c2cc(S(=O)(=O)NC3(C#N)CC3)cc3c(-c4nnc(C(F)F)s4)nn(C)c23)CCO1 [Compound 35]	< 100	
Cn1nc(-c2nnc(C(F)F)s2)c2cc(S(=O)(=O)NC3(C#N)CC3)cc(N3CCN(C(=O)c4ccccc4)CC3)c21 [Compound 36]	< 100	
C[C@@H]1CN(c2cc(S(=O)(=O)NC3(C#N)CC3)cc3c(-c4nnc(C(F)F)s4)nn(C)c23)CCO1 [Compound 37]	< 100	
Cn1nc(-c2nnc(C(F)F)s2)c2cc(S(=O)(=O)NC3(C#N)CC3)cc(N3CCN(C(=O)C4(C)CC4)CC3)c21 [Compound 38]	< 100	
CC(C)C(=O)N1CC=C(c2cc(S(=O)(=O)NC3(C#N)CC3)cc3c(-c4nnc(C(F)F)s4)nn(C)c23)CC1 [Compound 40]	< 100	
Cn1nc(-c2nnc(C(F)F)s2)c2cc(S(=O)(=O)NC3(C#N)CC3)cc(N3CCN(c4cccnn4)CC3)c21 [Compound 41]	< 100	
Cn1nc(-c2nnc(C(F)F)s2)c2cc(S(=O)(=O)NC3(C#N)CC3)cc(N3CCC(O)CC3)c21 [Compound 42]	< 100	

Structure (SMILES)	IC50 (Table 2, class symbol) [nM]	also measured
Cn1nc(-c2nnc(C(F)F)s2)c2cc(S(=O)(=O)NC3(C#N)CC3)cc(N3CCN(C(=O)c4ccccn4)CC3)c21 [Compound 43]	< 100	
Cn1nc(-c2nnc(C(F)F)s2)c2cc(S(=O)(=O)NC3(C#N)CC3)cc(N3CCC(CO)CC3)c21 [Compound 44]	< 100	
CCC(=O)N1CCN(c2cc(S(=O)(=O)NC3(C#N)CC3)cc3c(-c4nnc(C(F)F)s4)nn(C)c23)CC1 [Compound 45]	< 100	
Cn1nc(-c2nnc(C(F)F)s2)c2cc(S(=O)(=O)NC3(C#N)CC3)cc(N3CCC4(CC3)COC4)c21 [Compound 46]	< 100	IC50 (Table 2, value in brackets): 0.9 nM
Cn1nc(-c2nnc(C(F)F)s2)c2cc(S(=O)(=O)NC3(C#N)CC3)cc(N3CCN(C(=O)C(F)(F)F)CC3)c21 [Compound 47]	< 100	
CC(C)S(=O)(=O)N1CCN(c2cc(S(=O)(=O)NC3(C#N)CC3)cc3c(-c4nnc(C(F)F)s4)nn(C)c23)CC1 [Compound 48]	< 100	
CC(C)CN1CCN(c2cc(S(=O)(=O)NC3(C#N)CC3)cc3c(-c4nnc(C(F)F)s4)nn(C)c23)CC1 [Compound 49]	< 100	
CCC(C)C(=O)N1CCN(c2cc(S(=O)(=O)NC3(C#N)CC3)cc3c(-c4nnc(C(F)F)s4)nn(C)c23)CC1 (stereo not shown) [Compound 50]	< 100	
Cn1nc(-c2nnc(C(F)F)s2)c2cc(S(=O)(=O)NC3(C#N)CC3)cc(N3CCN(C(=O)N4CCCC4)CC3)c21 [Compound 51]	< 100	
Cn1nc(-c2nnc(C(F)F)s2)c2cc(S(=O)(=O)NC3(C#N)CC3)cc(N3CCN(C(=O)CC(F)(F)F)CC3)c21 [Compound 52]	< 100	
Cn1nc(-c2nnc(C(F)F)s2)c2cc(S(=O)(=O)NC3(C#N)CC3)cc(N3CCN(c4ccccc4)CC3)c21 [Compound 53]	< 100	
CC(C)N1CCN(c2cc(S(=O)(=O)NC3(C#N)CC3)cc3c(-c4nnc(C(F)F)s4)nn(C)c23)CC1 [Compound 54]	< 100	
CC(C)C(=O)N1CCN(c2cc(S(=O)(=O)NC3(C#N)CC3)cc3c(-c4nnc(C(F)F)s4)nn(C(F)F)c23)CC1 [Compound 55]	< 100	
Cc1nnc(-c2nn(C)c3c(N4CCN(C(=O)C(C)C)CC4)cc(S(=O)(=O)NC4(C#N)CC4)cc23)s1 [Compound 56]	< 100	
Cn1nc(-c2nnc(C(F)F)s2)c2cc(S(=O)(=O)NC3(C#N)CC3)cc(N3CCC(N=[N+]=[N-])CC3)c21 [Compound 60]	< 100	
CC(C)C(=O)N1CCN(c2cc(S(=O)(=O)NC3(C#N)CC3)cc3c(-c4cnn(C)c4)nn(C)c23)CC1 [Compound 61]	< 100	
CC(C)C(=O)N1CC2CCC(C1)N2c1cc(S(=O)(=O)NC2(C)CC2)cc2c(-c3nnc(C(F)F)s3)nn(C)c12 [Compound 62]	< 100	
CC(C)C(=O)N1CCN(c2cc(S(=O)(=O)NC3(C)CC3)cc3c(-c4nnc(C(F)F)s4)nn(C)c23)C2CC21 (stereo not shown) [Compound 63]	< 100	
CC(C)C(=O)N1CCN(c2cc(S(=O)(=O)NC3(C)CC3)cc3c(-c4nnc(C(F)F)s4)csc23)CC1 [Compound 64]	< 100	
CC(C)C(=O)N1C2CCC1CN(c1cc(S(=O)(=O)NC3(C)CC3)cc3c(-c4nnc(C(F)F)s4)nn(C)c13)C2 [Compound 65]	< 100	
CCn1nc(-c2nnc(C(F)F)s2)c2c(F)c(S(=O)(=O)NC3(C)CC3)cc(N3CCN(C(=O)C(C)C)CC3)c21 [Compound 66]		IC50 (Table 3, class symbol): < 100 nM
CCn1nc(-c2nnc(C(F)F)s2)c2cc(S(=O)(=O)NC3(C)CC3)c(F)c(N3CCN(C(=O)C(C)C)CC3)c21 [Compound 67]		IC50 (Table 3, class symbol): < 100 nM
CC(C)C(=O)N1CCN(c2cc(S(=O)(=O)NC3(C#N)CC3)cc3c(-c4nnc(C(F)F)s4)nn(C)c23)C[C@H]1C [Compound 69]		IC50 (Table 3, class symbol): < 100 nM
C[C@@H]1CN(c2cc(S(=O)(=O)NC3(C#N)CC3)cc3c(-c4nnc(C(F)F)s4)nn(C)c23)CCN1C(=O)N(C)C [Compound 70]		IC50 (Table 3, class symbol): < 100 nM
C[C@H]1CN(c2cc(S(=O)(=O)NC3(C#N)CC3)cc3c(-c4nnc(C(F)F)s4)nn(C)c23)CCN1C(=O)N(C)C [Compound 71]		IC50 (Table 3, class symbol): < 100 nM

Now from value to molecule, other results behind:

IC50 (Table 2, class symbol) [nM]	Structure (SMILES)	also measured
< 100	Cc1nc(C)c(Cn2nc(-c3nnc(C(F)F)s3)c3cc(S(=O)(=O)NC4(C)CC4)c(F)cc32)s1 [Compound 13]	
< 100	Cc1nc(C)c(Cn2nc(-c3nnc(C(F)F)s3)c3cc(S(=O)(=O)NC4(C)CC4)cc(F)c32)s1 [Compound 14]	
< 100	CC(C)C(=O)N1CCN(c2cc(S(=O)(=O)NC3(C)CC3)cc3c(-c4nnc(C(F)F)s4)nn(C(C)C)c23)CC1 [Compound 16]	
< 100	Cc1nc(C)c(Cn2nc(-c3nnc(C(F)F)s3)c3cc(S(=O)(=O)NC4(C)CC4)cc(N4CCN(C(=O)C(C)C)CC4)c32)s1 [Compound 19]	
< 100	Cn1nc(-c2nnc(C(F)F)s2)c2cc(S(=O)(=O)NC3(C)CC3)cc(N3CCn4cncc4C3)c21 [Compound 20]	
< 100	CC(C)C(=O)N1CCN(c2cc(S(=O)(=O)NC3(C)CC3)cc3c(-c4nnc(C(F)F)s4)nn(C4CC4)c23)CC1 [Compound 21]	
< 100	CCn1nc(-c2nnc(C(F)F)s2)c2cc(S(=O)(=O)NC3(C)CC3)cc(N3CCN(C(=O)C(C)C)CC3)c21 [Compound 22]	
< 100	CC(C)C(=O)N1CCN(c2cc(S(=O)(=O)NC3(C)CC3)cc3c(-c4nnc(C(F)F)s4)nn(CC(F)(F)F)c23)CC1 [Compound 23]	
< 100	CCn1nc(-c2nnc(C(F)F)s2)c2cc(S(=O)(=O)NC3(C#N)CC3)cc(N3CCN(C(=O)C(C)C)CC3)c21 [Compound 26]	
< 100	Cn1nc(-c2nnc(C(F)F)s2)c2cc(S(=O)(=O)NC3(C#N)CC3)cc(-c3ccccc3)c21 [Compound 28]	
< 100	Cn1nc(-c2nnc(C(F)F)s2)c2cc(S(=O)(=O)NC3(C#N)CC3)cc(-c3ccncn3)c21 [Compound 31]	
< 100	N#CC1(NS(=O)(=O)c2ccc3c(c2)c(-c2nnc(C(F)F)s2)nn3Cc2ccc(F)cc2)CC1 [Compound 57]	
< 100	CC1(NS(=O)(=O)c2ccc3c(c2)c(-c2nnc(C(F)F)s2)nn3Cc2ccc3cn[nH]c3c2)CC1 [Compound 58]	
< 100	CC1(NS(=O)(=O)c2ccc3c(c2)c(-c2nnc(C(F)F)s2)nn3Cc2ccc3cncn3c2)CC1 [Compound 59]	
